Laboratory results reported in patent USRE50096E1, “Nanoemulsion compositions of taxoid drugs, and methods for the use thereof to target cancer cells and cancer stem cells” (TargaGenix, Inc., priority 2016, dated 2024).
Read-outs that look alike come from different tables or passages of the source.

How the values were obtained:
[1] = system: human CFPAC-1 ductal pancreatic adenocarcinoma xenograft; assay: CFPAC-1 pancreatic adenocarcinoma xenograft in SCID mice; settings: for tumor growth delay as compared to vehicles: mouse, in vivo
[2] = system: paclitaxel-resistant, Pgp(+) DLD1 human colon tumor xenograft; assay: DLD1 human colon tumor xenograft in SCID mice
[3] = system: human PANC-1 pancreatic tumor xenograft; assay: PANC-1 pancreatic tumor xenograft in SCID mice; type: in vivo, RPCI SCID mice; settings: for complete remissions: mouse, in vivo
Excerpt: This experiment compared a q7dx3 with a q3dx3 schedule for PX and DHA-SBT-1214 using a human PANC-1 pancreatic tumor xenograft in RPCI SCID mice.

[4] = system: tubulin; settings: cited from earlier work
[5] = system: H460 human non-small cell lung tumor xenograft; assay: H460 non-small cell lung tumor xenograft in SCID mice; settings: for tumor growth delay: at (about) MTD
[6] = system: HT29 spheroids; assay: Colon cancer stem cell 3D spheroids, HT29; type: cell-based, human
Description: (§1) In another example, stem-cell enriched populations of colon cancer cells were selected from three invasive colon cancer cell lines, HCT116, HT29, and DLD-1. The populations were grown as 3D multicellular spheroids.
HT29: ACAN, ALPI, BMP3, CD3D, CD4, CD8A, CD8B, CDH2, COL2A1, COL9A1, DHH, DLL1, DLL3, DTX1, FGF1, FGF3, FZD1, GDF2, IGF1, MME, MYOD, NCAM1, NEUROG2, S100B, SOX2, and TERT;

[7] = system: DLD-1 spheroids; assay: Colon cancer stem cell 3D spheroids, DLD-1; type: cell-based, human
Description: as §1
DLD-1: CD4, CDH2, COL1A1, DLL1, DTX1, IGF1, FGF3, FZD1, JAG1, KRT15, MSX1, NCAM1 and NOTCH1 (Botchkina, et al., 2010).

[8] = system: HCT116 spheroids; assay: Colon cancer stem cell 3D spheroids, HCT116; type: cell-based, human
Description: as §1
HCT116: SOX1, RPL13A, BMP1, BMP3, NEUROG2, GJB1, GJA1, ASCL2, CTNNA1, GDF2, ALPI, S100B, CD8B1, ACTB, CCND1, FGF1, PARD6A, DVL1, GDF3, ISL1, CD3D, MME, FGFR1, RB1, AIN1, ALDH1A1, CD8A, PPARD, FZD1, NUMB and ABCG2;

[9] = system: CD133+ PPT2 cells; assay: Stemness gene expression in PPT2 cells (PCR array, Western blot); type: cell-based, human
Description: Experiments were carried out with a patient-derived cancer stem cell line for prostate cancer, PPT2 (Botchkina 2013, Rowehl 2014). The cell line PPT2 was generated from a patient-derived prostate cancer tumor. […] The PPT2 cell line was serially propagated as NOD/SCID mice tumor xenografts, floating 3D spheroids and type I collagen-adherent cultures. According to the ATCC report (ID number 002872), the PPT2 cells were unique human cells not contaminated with any known established cell lines. Although phenotype of the CSC-enriched cultures was dynamic due to the dual nature of the CSCs (i.e., ability to self-renew and to generate committed progenitors), the PPT2 cells retained a relatively stable phenotype, even up to 8 weeks after MACS-CD133^+ cell sorting and culturing on type I collagen coated surfaces in serum-free medium. […] Both nuclear and cytoplasmic fractions of the PPT2 cells expressed c-Myc, whereas other pluripotency markers (Oct-4 and Sox-2) were detected only in nuclear fraction. […]
To characterize possible drug induced alterations in stemness gene expression, CD133^+ PPT2 cells were analyzed before and after treatment with a combination of SBT-1214 and CMC 2.24, a chemically-modified curcumin. […]

[10] = system: drug resistant cancer cells, expressing MDR phenotypes; settings: cited from earlier work
[11] = system: drug resistant (Pgp+) colon tumor xenografts; settings: mouse, in vivo; cited from earlier work
[12] = system: H460 human non-small cell lung tumor xenograft; settings: mouse, in vivo
[13] = 80 mg/kg dose on days 5, 8, and 11

CC(=O)O[C@H]1C(=O)[C@@]2(C)[C@H]([C@H](OC(=O)c3ccccc3)[C@]3(O)C[C@H](OC(=O)[C@H](O)[C@@H](NC(=O)c4ccccc4)c4ccccc4)C(C)=C1C3(C)C)[C@]1(OC(C)=O)CO[C@@H]1C[C@@H]2O [paclitaxel, reference compound]
tumor growth delay as compared to vehicles [1]: only minor tumor growth delay
efficacy against tumor xenograft ([2]; s.c. xenograft): totally ineffective
complete remissions [3]: no complete remissions
tumor growth delay ([3]; q3dx3 schedule): 13 days
tumor growth delay ([3]; q7dx3 schedule): 18 days
time to polymerize tubulin [4]: hours
tumor growth delay [5]: 8 days
MTD ([5]; mouse, in vivo): 75 mg/kg total dose

CC/C=C\C/C=C\C/C=C\C/C=C\C/C=C\C/C=C\CCC(=O)O[C@@H](C(=O)O[C@H]1C[C@@]2(O)[C@@H](OC(=O)c3ccccc3)[C@@H]3[C@]4(OC(C)=O)CO[C@@H]4C[C@H](O)[C@@]3(C)C(=O)[C@H](OC(=O)C3CC3)C(=C1C)C2(C)C)[C@H](C=C(C)C)NC(=O)OC(C)(C)C [DHA-SBT-1214]
weight loss ([1]; 240 mg/kg or 300 mg/kg total dose): negligible
complete regression of the DLD-1 tumor [2, 13]: 5 of 5
tumor growth delay [2, 13]: > 187 days
maximum tolerated dose (MTD) ([3]; 80 mg/kg x 3 inj): 240 mg/kg total dosage
toxic death ([3]; 300 mg/kg total dose): one toxic death
tumor growth delay ([3]; both schedules, q7dx3 and q3dx3): > 90 days
complete remissions [3]: achieved complete remissions
tumor growth delay [5]: 55 days
MTD ([5]; mouse, in vivo): ~240 mg/kg total dose
tolerability ([5]; mouse, in vivo): clearly better tolerated than SBT-1214

CC(=O)O[C@@]12CO[C@@H]1C[C@H](O)[C@@]1(C)C(=O)[C@H](OC(=O)C3CC3)C3=C(C)[C@@H](OC(=O)[C@H](O)[C@H](C=C(C)C)NC(=O)OC(C)(C)C)C[C@@](O)([C@@H](OC(=O)c4ccccc4)[C@H]21)C3(C)C [SBT-1214]
weight loss ([1]; until day 20, 120 mg/kg total dose): < 4%
growth of the secondary spheroids ([6]; 100 nM for 48 h): marked suppression
cytotoxicity in spheroids ([6]; 3D multicellular spheroids): effectively induced cytotoxicity
stemness-associated genes ([6]; gene list): downregulated
growth of the secondary spheroids ([7]; 100 nM for 48 h): marked suppression
cytotoxicity in spheroids ([7]; 3D multicellular spheroids): effectively induced cytotoxicity
stemness-associated genes ([7]; gene list): downregulated
growth of the secondary spheroids ([8]; 100 nM for 48 h): marked suppression
cytotoxicity in spheroids ([8]; 3D multicellular spheroids): effectively induced cytotoxicity
stemness-associated genes ([8]; gene list): downregulated
time to polymerize tubulin [4]: a matter of minutes
expression of p21 and p53 [9]: induced expression
c-Myc and Sox2 in nuclear extracts (Western blot) ([9]; CD133+ and bulk PPT2 cells): moderate down-regulation
potency relative to paclitaxel [10]: 2-3 orders of magnitude
tumor growth delay [5]: 34 days
MTD ([5]; mouse, in vivo): ~120 mg/kg total dose
long-term regression and tumor growth delay [11]: 167 days
tumor growth delay [11]: > 187 days
tumor regression [11]: complete regression in all surviving mice

CC/C=C\C/C=C\C/C=C\C/C=C\C/C=C\C/C=C/CCC(=O)O[C@@H](C(=O)O[C@H]1C[C@@]2(O)[C@@H](OC(=O)c3ccccc3)C3[C@](C)(C(=O)[C@H](OC(C)=O)C(=C1C)C2(C)C)[C@@H](O)C[C@H]1OC[C@@]31OC(C)=O)[C@@H](NC(=O)c1ccccc1)c1ccccc1 (stereo partly shown) [DHA-paclitaxel, reference compound]
tumor growth delay as compared to vehicles [1]: only minor tumor growth delay
MTD [12]: 240 mg/kg total dose
tumor growth delay [5]: 3 days
